Measurements published in patent US5521180A, “Morpholine derivative” (Yamanouchi Pharmaceutical Co., Ltd., priority 1993, dated 1996).
Where a name gives a salt, the structure may show the parent alone. Read-outs that look alike come from different tables or passages of the source.

Columns and labels:
5-HT reuptake sites = molecular target: T1, 5-HT reuptake sites (Rattus norvegicus, UniProt P31652); assay: [3H]-Citalopram binding to 5-HT reuptake sites (5-HT reuptake inhibition, in vitro); details: rat cerebral cortex membrane, about 1.0 nM [3H]-Citalopram, 25° C., 60 minutes
T1 construct: a rat cerebral cortex membrane preparation (about 0.4 mg-protein); from tissue; host or cells: rat cerebral cortex membrane preparation
Description: The 5-HT reuptake inhibitory activity was tested by examining the degree of inhibition of a test compound on binding of [^3 H]-Citalopram to 5-HT reuptake sites.
The method of D'amato RJ, et al. described in J. Pharmacol. Exp. Ther., 242, 364 (1987) was used. A buffer solution (0.5 ml) containing about 1.0 nM of [^3 H]-Citalopram, a rat cerebral cortex membrane preparation (about 0.4 mg-protein), and a test compound was allowed to react at 25° C. for 60 minutes. Thereafter, the labeled ligand of bound form was separated form the labeled ligand of free form by suction filtration. The amount of the ligand nonspecifically bound to the 5-HT reuptake sites, which was obtained by adding excess non-labeled Fluoxetine (10 μM), was subtracted from the total amount of the bound ligand to obtain the amount of the ligand specifically bound to the 5-HT reuptake sites. The IC50 (the concentration which reduces the amount of the specifically bound ligand by 50%) for each compound was calculated and converted to a dissociation constant (Ki value). in vivo Test: […]

5-HT2 receptors = molecular target: T2, 5-HT2 receptors (Rattus norvegicus, UniProt P14842); assay: [3H]-Ketanserin binding, antagonism for 5-HT2 receptors (in vitro); details: rat cerebral cortex membrane, about 1.0 nM [3H]-Ketanserin, 25° C., 30 minutes; read-out: Antagonism for 5-HT2 Receptor (Ki Value)
T2 construct: a rat cerebral cortex membrane preparation (about 0.2 mg-protein); from tissue; host or cells: rat cerebral cortex membrane preparation
Description: The degree of inhibition of a test compound on binding of [^3 H]-Ketanserin was tested. The method of Leysen JE, et al. described in Mol. Pharmacol., 21, 301 (1982) was used. A buffer solution (0.5 ml in total) containing about 1.0 nM of [^3 H]-Ketanserin, a rat cerebral cortex membrane preparation (about 0.2 mg-protein), and a test compound was allowed to react at 25° C. for 30 minutes. Thereafter, the bound labeled ligand was separated by suction filtration. The amount of the ligand nonspecifically bound to the 5-HT2 receptors, which was obtained by adding excess non-labeled Metergoline (10 μM), was subtracted from the total amount of the bound ligand to obtain the amount of the ligand specifically bound to 5-HT2 receptors. The IC50 (the concentration at which the amount of the specifically bound ligand is reduced by 50%) for each compound was calculated and converted to a dissociation constant (Ki value).

α1 receptors = details: background; causes side effects based thereon; cited from earlier work
[1] = clinical use, Physician's Desk Reference 1990; cited from earlier work
5-HT reuptake = assay: Enhancement of the action of L-5-hydroxytryptophan in mice (5-HT reuptake inhibition, in vivo); design: species or system Male ICR mice; details: Mus musculus, ip, intraperitoneal, 30 minutes before 90 mg/kg i.v. L-5-hydroxytryptophan
Description: Enhancement of the action of L-5-hydroxytryptophan which is a 5-HT precursor was tested [Naunyn-Schmiedeberg's Archives of Pharmacology, 311, 185-192 (1980)]. Male ICR mice weighing from 30 to 40 g were used. A test drug was intraperitoneally administered, and 30 minutes later 90 mg/kg of L-5-hydroxytryptophan was intravenously injected. […] The test drug was evaluated from the ED50 in manifestation of each action.

[2] = system: [3H]-noradrenaline uptake; assay: [3H]-noradrenaline uptake into cerebral cortex synaptosomes; type: biochemical, Wistar male rat
Description: (§1) The degree of inhibition of a test compound on uptake of [^3 H]-5-HT, [^3 H]-noradrenaline and [^3 H]-dopamine into synaptosomes was examined. The method of Harada and Maeno described in Biochem. Pharmacol., 28, 2645 (1979) was used. A Wistar male rat was decapitated and the cerebral cortex and the corpus striatum were taken out. The synaptosome fraction of the cerebral cortex was prepared for 5-HT and noradrenaline uptake and that of the corpus striatum was prepared for dopamine uptake. Each synaptosome fraction was incubated at 37° C. for 3 minutes, and [^3 H]-5-HT, [^3 H]-noradrenaline and [^3 H]-dopamine (10^-7 M) was added to the respective fraction. After further incubation for 2 minutes, the system was cooled with ice (0° C.) to stop the reaction. Then, the reaction system was filtered through a Whatman CF/B glass filter, and the radioactivity trapped on the filter was measured with a liquid scintillation counter. The nonspecific activity was obtained by using a reaction system containing no test drug and having been incubated at 0° C. The test drug was evaluated from the IC50 (the concentration at which the uptake of each radioactive ligand reduced by 50%).

[3H]-5-HT uptake = [3H]-5-HT uptake into cerebral cortex synaptosomes; type: biochemical, Wistar male rat; details: rat cerebral cortex synaptosomes, 10^-7 M ligand, 37° C.; read-out: IC50 in inhibition of [3H]-5-HT uptake
Description: as §1

[3H]-dopamine uptake = [3H]-dopamine uptake into corpus striatum synaptosomes; type: biochemical, Wistar male rat
Description: as §1

[3] = selectivity, about 30 or more times

T1 sequence (P31652 whole entry): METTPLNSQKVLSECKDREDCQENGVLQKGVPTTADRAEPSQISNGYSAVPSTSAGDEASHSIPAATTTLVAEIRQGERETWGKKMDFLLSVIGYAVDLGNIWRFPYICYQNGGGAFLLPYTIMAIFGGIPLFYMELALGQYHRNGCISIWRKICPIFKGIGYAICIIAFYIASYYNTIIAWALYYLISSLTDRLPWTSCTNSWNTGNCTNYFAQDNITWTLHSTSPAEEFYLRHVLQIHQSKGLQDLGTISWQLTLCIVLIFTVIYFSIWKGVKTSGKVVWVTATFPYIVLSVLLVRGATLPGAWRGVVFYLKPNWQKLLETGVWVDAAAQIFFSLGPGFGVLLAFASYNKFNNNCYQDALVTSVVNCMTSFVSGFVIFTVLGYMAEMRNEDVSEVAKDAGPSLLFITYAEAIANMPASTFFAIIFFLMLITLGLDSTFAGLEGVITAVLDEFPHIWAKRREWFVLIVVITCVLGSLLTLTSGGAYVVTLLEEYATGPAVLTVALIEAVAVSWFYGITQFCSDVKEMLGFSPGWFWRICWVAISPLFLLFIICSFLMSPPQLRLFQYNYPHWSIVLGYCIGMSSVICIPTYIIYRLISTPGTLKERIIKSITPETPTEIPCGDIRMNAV
T2 sequence (P14842 whole entry): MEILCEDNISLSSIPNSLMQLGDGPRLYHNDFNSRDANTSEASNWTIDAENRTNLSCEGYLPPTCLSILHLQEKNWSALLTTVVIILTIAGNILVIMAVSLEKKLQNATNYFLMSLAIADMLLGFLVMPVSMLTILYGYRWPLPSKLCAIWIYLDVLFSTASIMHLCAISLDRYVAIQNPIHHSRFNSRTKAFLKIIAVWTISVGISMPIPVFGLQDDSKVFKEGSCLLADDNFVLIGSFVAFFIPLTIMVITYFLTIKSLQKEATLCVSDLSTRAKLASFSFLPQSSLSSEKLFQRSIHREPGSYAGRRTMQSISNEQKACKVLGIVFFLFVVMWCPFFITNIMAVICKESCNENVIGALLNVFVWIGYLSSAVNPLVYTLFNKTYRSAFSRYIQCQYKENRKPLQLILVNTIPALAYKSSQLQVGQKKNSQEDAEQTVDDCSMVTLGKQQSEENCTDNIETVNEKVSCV

Compound `c1cc2c(c(OCC3CNCCO3)c1)CCC2` (stereo not drawn) [compound 1, 2-[[(4-Indanyl)oxy]methyl]morpholine, reference compound] has a Ki (5-HT reuptake sites) of 52 nM and a Ki (5-HT2 receptors) of 1030 nM.

For `C1=Cc2cccc(OCC3CNCCO3)c2C1` (stereo not drawn) [compound 2, 2-[[(7-Indenyl)oxy]methyl]morpholine, reference compound], the Ki (5-HT reuptake sites) was 22 nM and the Ki (5-HT2 receptors) was 4670 nM.

In the case of `O=c1n(CCCN2CCN(c3cccc(Cl)c3)CC2)nc2ccccn12` [Trazodone], the “affinity to α1 receptors (in words)” value (α1 receptors) is listed as “exhibits affinity to α1receptors”.

In the case of `CNCCC(Oc1ccc(C(F)(F)F)cc1)c1ccccc1` (stereo not drawn) [Fluoxetine], the “side effects during the course of therapy” value [1] is listed as “induces anxiety or insomnia”.

`Fc1ccc(OCC2CNCCO2)c2c1CCC2` (single isomer, unassigned; (-)) [Example 5, (-)-2-[[(7-fluoro-4-indanyl)oxy]methyl]morpholine hydrochloride] gave a Ki (5-HT reuptake sites) of 21 nM and a Ki (5-HT2 receptors) of 100 nM.

Work on `Fc1ccc(OCC2CNCCO2)c2c1CCC2.O=C(O)/C=C/C(=O)O` (single isomer, unassigned; (-)) [Example 4, (-)-2-[[(7-fluoro-4-indanyl)oxy]methyl]morpholine fumarate] yielded a Ki (5-HT reuptake sites) of 21 nM, a Ki (5-HT2 receptors) of 100 nM and an ED50 (5-HT reuptake; read-out: ED50 in manifestation of head shaking behavior) of 7.2 mg/kg. It also gave an ED50 (5-HT reuptake; read-out: ED50 in manifestation of hind leg abduction) of 14.1 mg/kg and an ED50 (5-HT reuptake; read-out: ED50 in manifestation of tremor) of 6.3 mg/kg.

With `Fc1ccc(OCC2CNCCO2)c2c1CCC2` (stereo not drawn) [Example 1, 2-[[(7-fluoro-4-indanyl)oxy]methyl]morpholine] the IC50 ([2]; rat cerebral cortex synaptosomes, 10^-7 M ligand, 37° C., read-out: IC50 in inhibition of [3H]-noradrenaline uptake) was 6720 nM, the “[3H]-5-HT uptake inhibitory activity relative to [3H]-noradrenaline uptake inhibitory activity” value [2, 3] was ≥ 30 times and the IC50 ([3H]-5-HT uptake) was 227 nM. For the same compound, the IC50 ([3H]-dopamine uptake; rat corpus striatum synaptosomes, 10^-7 M ligand, 37° C., read-out: IC50 in inhibition of [3H]-dopamine uptake) was ≥ 10000 nM and the “[3H]-5-HT uptake inhibitory activity relative to [3H]-dopamine uptake inhibitory activity” value ([3H]-dopamine uptake; [3]) was ≥ 30 times.
